Ten compounds from patent US10093683B2, “Factor XIa inhibitors” (Merck Sharp & Dohme Corp., priority 2014, dated 2018) can be followed below.

Chain of human Factor XIa (P03951 388-625): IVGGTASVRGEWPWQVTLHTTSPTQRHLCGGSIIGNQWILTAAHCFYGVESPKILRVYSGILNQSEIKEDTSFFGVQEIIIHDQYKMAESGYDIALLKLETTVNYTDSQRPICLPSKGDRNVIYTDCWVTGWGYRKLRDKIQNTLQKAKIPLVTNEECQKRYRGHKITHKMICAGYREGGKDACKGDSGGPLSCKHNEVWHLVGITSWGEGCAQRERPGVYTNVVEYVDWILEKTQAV
Chain of human Factor XIa (P03951 19-387 partner): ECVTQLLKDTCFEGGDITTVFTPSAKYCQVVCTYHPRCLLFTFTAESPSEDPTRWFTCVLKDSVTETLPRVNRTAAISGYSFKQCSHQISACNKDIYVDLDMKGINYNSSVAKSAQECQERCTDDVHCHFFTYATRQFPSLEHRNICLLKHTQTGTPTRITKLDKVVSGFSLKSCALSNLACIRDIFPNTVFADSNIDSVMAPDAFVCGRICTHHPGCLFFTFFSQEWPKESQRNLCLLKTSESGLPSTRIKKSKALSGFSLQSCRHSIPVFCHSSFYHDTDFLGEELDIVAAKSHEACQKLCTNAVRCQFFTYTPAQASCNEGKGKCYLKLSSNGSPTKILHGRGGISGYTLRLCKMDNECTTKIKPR

This test has as its target human Factor XIa (Homo sapiens (Human), UniProt P03951). Description: Factor XIa Assay. The settings on record: purified human Factor XIa 40 pM, Z-Gly-Pro-Arg-AFC 100 μM, pH 7.4; read-out: FXIa Ki. The format is biochemical. Here is the method:
The effectiveness of a compound of the present invention as an inhibitor of Coagulation Factor XIa can be determined using a relevant purified serine protease, and an appropriate synthetic substrate. The rate of hydrolysis of the chromogenic or fluorogenic substrate by the relevant serine protease was measured both in the absence and presence of compounds of the present invention. Assays were conducted at room temperature or at 37° C. […] A decrease in the rate of fluorescence change in the presence of inhibitor is indicative of enzyme inhibition. Such methods are known to one skilled in the art. The results of this assay are expressed as the inhibitory constant, Ki.
Factor XIa determinations were made in 50 mM HEPES buffer at pH 7.4 containing 150 mM NaCl, 5 mM CaCl2, and 0.1% PEG 8000 (polyethylene glycol; JT Baker or Fisher Scientific). Determinations were made using purified human Factor XIa at a final concentration of 40 pM (Sekisui Diagnostics) and he synthetic substrate, Z-Gly-Pro-Arg-AFC, TFA salt (Sigma #C0980) at a concentration of 100 μM.
Times required to achieve equilibration between enzyme and inhibitor were determined in control experiments. Initial velocities of product formation in the absence (Vo) or presence of inhibitor (Vi) were measured. Assuming competitive inhibition, and that unity is negligible compared Km/[S], [I]/e, and [I]/e (where [S], [I], and e respectively represent the total concentrations, of substrate, inhibitor and enzyme), the equilibrium constant (Ki) for dissociation of the inhibitor from the enzyme can be obtained from the dependence of Vo/Vi on [I] shown in the following equation.
For orientation: Ki means the dissociation constant of the complex between target and ligand, obtained from inhibition or displacement. Take `COC(=O)Nc1ccc(C(=O)N[C@@H](Cc2ccccc2)C(=O)N2CC[C@]3(C2)OC(=O)Nc2ccc(C)cc23)cc1` [Example 14a, methyl (4-(((S)-1-((S)-6-methyl-2-oxo-1,2-dihydrospiro[benzo[d][1,3]oxazine-4,3′-pyrrolidin]-1′-yl)-1-oxo-3-phenylpropan-2-yl)carbamoyl)phenyl)carbamate]: the Ki was determined as 5 µM.

On to `COC(=O)Nc1ccc(C(=O)N[C@@H](Cc2ccccc2)C(=O)N2CCC[C@@]3(C2)OC(=O)Nc2ccc(C4CC4)c(F)c23)cc1` [Example 17, methyl (4-(((S)-1-((R)-6-cyclopropyl-5-fluoro-2-oxo-1,2-dihydrospiro[benzo[d][1,3]oxazine-4,3′-piperidin]-1′-yl)-1-oxo-3-phenylpropan-2-yl)carbamoyl)phenyl)carbamate], for which the Ki is 0.0374 µM.

For the compound `COC(=O)Nc1ccc(C(=O)N[C@@H](Cc2ccccc2)C(=O)N2CCC3(CC(=O)Nc4ccc(Cl)cc43)C2)cc1` (stereo partly drawn) [Example 18, methyl (4-(((2S)-1-(6′-chloro-2′-oxo-2′,3′-dihydro-1′H-spiro[pyrrolidine-3,4′-quinolin]-1-yl)-1-oxo-3-phenylpropan-2-yl)carbamoyl)phenyl)carbamate], the inhibitory constant (Ki) is 5 µM.

In the case of `COC(=O)Nc1ccc(C(=O)N[C@@H](CC2CC2)C(=O)N2CC[C@]3(C2)OC(=O)Nc2ccc(Cl)cc23)cc1` [Example 21a, methyl (4-(((S)-1-((S)-6-chloro-2-oxo-1,2-dihydrospiro[benzo[d][1,3]oxazine-4,3′-pyrrolidin]-1′-yl)-3-cyclopropyl-1-oxopropan-2-yl)carbamoyl)phenyl)carbamate], the Ki was determined as 0.726 µM.

`COC(=O)Nc1ccc(C(=O)N[C@@H](CC2CC2)C(=O)N2CC[C@@]3(C2)OC(=O)Nc2ccc(Cl)cc23)cc1` [Example 21b, methyl (4-(((S)-1-((R)-6-chloro-2-oxo-1,2-dihydrospiro[benzo[d][1,3]oxazine-4,3′-pyrrolidin]-1′-yl)-3-cyclopropyl-1-oxopropan-2-yl)carbamoyl)phenyl)carbamate]: the Ki stood at 0.0312 µM.

`COC(=O)Nc1ccc(C(=O)N[C@@](C)(Cc2ccccc2)C(=O)N2CCC3(C2)OC(=O)Nc2ccc(Cl)cc23)cc1` (stereo partly drawn) [Example 24, methyl (4-(((2S)-1-(6-chloro-2-oxo-1,2-dihydrospiro[benzo[d][1,3]oxazine-4,3′-pyrrolidin]-1′-yl)-2-methyl-1-oxo-3-phenylpropan-2-yl)carbamoyl)phenyl)carbamate]: the Ki was at least 5 µM.

Consider `COC(=O)Nc1ccc(C(=O)N[C@@]2(C(=O)N3CCC4(C3)OC(=O)Nc3ccc(Cl)cc34)C[C@@H]2c2ccccc2)cc1` (stereo partly drawn) [Example 25, methyl (4-(((1S,2R)-1-(6-chloro-2-oxo-1,2-dihydrospiro[benzo[d][1,3]oxazine-4,3′-pyrrolidin]-1′-ylcarbonyl)-2-phenylcyclopropyl)carbamoyl)phenyl)carbamate], for which the inhibitory constant (Ki) was at least 5 µM.

Turning to `COC(=O)Nc1ccc(C(=O)N[C@H](C(=O)N2CCC3(C2)OC(=O)Nc2ccc(Cl)cc23)c2ccccc2)cc1` (stereo partly drawn) [Example 29, methyl (4-(((1S)-2-(6-chloro-2-oxo-1,2-dihydrospiro[benzo[d][1,3]oxazine-4,3′-pyrrolidin]-1′-yl)-2-oxo-1-phenylethyl)carbamoyl)phenyl)carbamate], the inhibition constant (Ki) was at least 5 µM.

Regarding `COC(=O)Nc1ccc(C(=O)N[C@H](C(=O)N2CCC3(C2)OC(=O)Nc2ccc(Cl)cc23)[C@H](C)c2ccccc2)cc1` (stereo partly drawn) [Example 33, methyl (4-(((2S,3R)-1-(6-chloro-2-oxo-1,2-dihydrospiro[benzo[d][1,3]oxazine-4,3′-pyrrolidin]-1′-yl)-1-oxo-3-phenylbutan-2-yl)carbamoyl)phenyl)carbamate], the Ki turned out to be 4.31 µM.

Regarding `COC(=O)Nc1ccc(C(=O)N[C@@H](CC2CCCCC2)C(=O)N2CCC3(C2)OC(=O)Nc2ccc(Cl)cc23)cc1` (stereo partly drawn) [Example 34, methyl (4-(((2S)-1-(6-chloro-2-oxo-1,2-dihydrospiro[benzo[d][1,3]oxazine-4,3′-pyrrolidin]-1′-yl)-3-cyclohexyl-1-oxopropan-2-yl)carbamoyl)phenyl)carbamate], the Ki stood at 0.09 µM.
